Results published in PubChem BioAssay (NCI).
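48-hour exposure; five concentrations; linearly interpolated endpoints. TGI: concentration producing complete growth inhibition.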

Tests used:
Experiment in all cases: DTP human tumour cell line panel, 48 h
[1] = system: OVCAR-3 ovarian
[2] = system: NCI-H522 lung
[3] = system: MOLT-4 leukemia
[4] = system: A498 renal
[5] = system: M14 melanoma
[6] = system: SK-MEL-28 melanoma
[7] = system: K-562 leukemia
[8] = system: OVCAR-8 ovarian
[9] = system: RXF 393 renal
[10] = system: TK-10 renal
[11] = system: SK-MEL-5 melanoma
[12] = system: SF-268 CNS
[13] = system: HL-60(TB) leukemia
[14] = system: SW-620 colon
[15] = system: NCI/ADR-RES ovarian
[16] = system: CCRF-CEM leukemia
[17] = system: CAKI-1 renal
[18] = system: SK-MEL-2 melanoma
[19] = system: HS 578T breast
[20] = system: U251 CNS
[21] = system: MCF7 breast
[22] = system: MDA-MB-435
[23] = system: MDA-MB-231 breast
[24] = system: KM12 colon
[25] = system: NCI-H460 lung
[26] = system: HCT-116 colon
[27] = system: SK-OV-3 ovarian
[28] = system: DU-145 prostate
[29] = system: MDA-N
[30] = system: HT29 colon
[31] = system: NCI-H226 lung
[32] = system: IGROV1 ovarian
[33] = system: SR leukemia
[34] = system: EKVX NSCLC
[35] = system: HOP-92 NSCLC
[36] = system: PC-3 prostate
[37] = system: HCC-2998 colon
[38] = system: LOX IMVI melanoma
[39] = system: HOP-62 NSCLC
[40] = system: NCI-H23 lung
[41] = system: UO-31 renal
[42] = system: ACHN renal
[43] = system: 786-0 renal
[44] = system: OVCAR-4 ovarian
[45] = system: RPMI-8226 leukemia
[46] = system: SF-295 CNS
[47] = system: HCT-15 colon
[48] = system: UACC-257 melanoma
[49] = system: T-47D breast
[50] = system: SF-539 CNS
[51] = system: OVCAR-5 ovarian
[52] = system: SNB-75 CNS
[53] = system: MALME-3M melanoma
[54] = system: COLO 205 colon
[55] = system: BT-549 breast
[56] = system: SNB-19 CNS
[57] = system: UACC-62 melanoma
[58] = system: A549 NSCLC
[59] = system: SN12C renal

Measured: TGI

CC1=NN(c2cccc(Cl)c2)C2(SCC(=O)N2c2nc3ccccc3s2)/C1=C\c1ccc(N(C)C)cc1 (stereo not drawn)
39.6 µM: [27]
75.7 µM: [19]
57.5 µM: [18]
87.9 µM: [4]
48.6 µM: [39]
84.1 µM: [42]
44.8 µM: [9]
79.9 µM: [35]
not listed: [52] | [53] | [54] | [55] | [56] | [57] | [58] | [59]
> 100 µM: all other assays above

CCN1C(=O)C(=C/C=C/C=C2/N(C)c3ccccc3C2(C)C)C(=O)N(CC)C1=S
70.9 µM: [55]
not listed: [3] | [6] | [11] | [20] | [33] | [36] | [37]
> 100 µM: all other assays above
